Results as given in a flash point compilation (Sun et al. 2020).

Row | SMILES | flash point
1 | Nc1cc(Cl)ccc1Cl [2,5-dichloroaniline] | 113.00 °C
2 | O=[N+]([O-])c1ccccc1-c1ccccc1 [1-nitro-2-phenylbenzene] | 143.00 °C
3 | CCOP(=S)(OCC)SCSP(=S)(OCC)OCC | 176.00 °C
4 | C=CC(=O)OCCO [2-hydroxyethyl prop-2-enoate] | 101.00 °C
5 | O=P(OC(CCl)CCl)(OC(CCl)CCl)OC(CCl)CCl [tris(1,3-dichloropropan-2-yl) phosphate] | 252.00 °C
6 | C[CH2][Pb]([CH2]C)([CH2]C)[CH2]C [tetraethylplumbane] | 93.00 °C
7 | CN(C)CCO [2-(dimethylamino)ethanol] | 41.00 °C
8 | CCON=O [ethyl nitrite] | -35.00 °C
9 | CCc1ccccc1N [2-ethylaniline] | 85.00 °C
10 | O=[N+]([O-])c1ccc(Cl)c(Cl)c1 [1,2-dichloro-4-nitrobenzene] | 124.00 °C
11 | COC(=O)CCl [methyl 2-chloroacetate] | 52.00 °C
12 | C#CCOc1cccc(-c2cc(C(F)(F)F)nc(S(=O)CC)n2)c1 (configuration not stated) | 240.00 °C
13 | O=Cc1ccco1 [furan-2-carbaldehyde] | 60.00 °C
14 | C=CCc1ccc2c(c1)OCO2 [5-prop-2-enyl-1,3-benzodioxole] | 98.00 °C
15 | CC(C)N(C(=O)SCC(Cl)=C(Cl)Cl)C(C)C | 90.00 °C
16 | CC(=O)C(C)(C)C [3,3-dimethylbutan-2-one] | 5.00 °C
17 | N#CC(O)c1ccccc1 (configuration not stated) [2-hydroxy-2-phenylacetonitrile] | 82.00 °C
18 | O=C(CCl)c1ccccc1 [2-chloro-1-phenylethanone] | 118.00 °C
19 | CN(C)c1ccc(Cc2ccc(N(C)C)cc2)cc1 [4-[[4-(dimethylamino)phenyl]methyl]-N,N-dimethylaniline] | 211.00 °C

Row | SMILES | flash point
20 | CCC(C)C [2-methylbutane] | -57.00 °C
21 | OCCOCCO [2-(2-hydroxyethoxy)ethanol] | 143.00 °C
22 | CC1CN1 (configuration not stated) [2-methylaziridine] | -4.00 °C
23 | Nc1cccc(C(F)(F)F)c1 [3-(trifluoromethyl)aniline] | 85.00 °C
24 | ClC(Cl)c1ccccc1 [dichloromethylbenzene] | 92.00 °C
25 | C#CCC1=C(C)C(OC(=O)[C@H]2[C@H](C=C(C)C)C2(C)C)CC1=O (some centres not stated) | 139.00 °C
26 | C#CCBr [3-bromoprop-1-yne] | 10.00 °C
27 | C=C(C)C#N [2-methylprop-2-enenitrile] | 13.00 °C
28 | ClC=C(Cl)CCl [1,2,3-trichloroprop-1-ene] | 85.00 °C
29 | C=CC#N [prop-2-enenitrile] | 0.00 °C
30 | c1ccc(OP(Oc2ccccc2)Oc2ccccc2)cc1 [triphenyl phosphite] | 218.00 °C
31 | Clc1ccccc1 [chlorobenzene] | 24.00 °C
32 | Nc1ccccc1C(=O)O [2-aminobenzoic acid] | 171.00 °C
33 | SCc1ccccc1 [phenylmethanethiol] | 70.00 °C
34 | COC(=O)c1ccccc1N [methyl 2-aminobenzoate] | 104.00 °C
35 | OCC(Cl)CCl (configuration not stated) [2,3-dichloropropan-1-ol] | 91.00 °C
36 | Clc1cccc(Cl)c1 [1,3-dichlorobenzene] | 63.00 °C
37 | C#CCO [prop-2-yn-1-ol] | 33.00 °C
38 | CCC(Cl)[N+](=O)[O-] (configuration not stated) [1-chloro-1-nitropropane] | 62.00 °C

Next, values leading:

Row | flash point | SMILES
39 | -9.00 °C | C=COCCCC [1-ethenoxybutane]
40 | 69.00 °C | ClC[Si](Cl)(Cl)Cl [trichloro(chloromethyl)silane]
41 | 35.00 °C | C1=C\CCCC\C=C/1 [(1Z,3Z)-cycloocta-1,3-diene]
42 | 60.00 °C | CCCCC(=O)CCCC [nonan-5-one]
43 | 33.00 °C | CC(N)CN (configuration not stated) [propane-1,2-diamine]
44 | -136.00 °C | C=C [ethene]
45 | 116.00 °C | CCCN(CCC)C(=O)SCC [S-ethyl N,N-dipropylcarbamothioate]
46 | 74.00 °C | CC(C)=CCCC(C)CC=O (configuration not stated) [3,7-dimethyloct-6-enal]
47 | 160.00 °C | OCC(O)CO [propane-1,2,3-triol]
48 | 46.00 °C | CCCCC(=O)CC [heptan-3-one]
49 | -1.00 °C | Cc1ccc(C)o1 [2,5-dimethylfuran]
50 | -4.00 °C | CC1CCCCC1 [methylcyclohexane]
51 | 95.00 °C | CN1CCC[C@H]1c1cccnc1 [3-[(2S)-1-methylpyrrolidin-2-yl]pyridine]
52 | 100.00 °C | Oc1c(Cl)cc(Cl)c(Cl)c1Cl [2,3,4,6-tetrachlorophenol]
53 | 24.00 °C | NCCCN [propane-1,3-diamine]
54 | 23.00 °C | CC(C)=CCC1CCCC1=O (configuration not stated) [2-(3-methylbut-2-enyl)cyclopentan-1-one]
55 | -9.00 °C | CCC=O [propanal]
56 | 79.00 °C | CC(C=O)=Cc1ccccc1 [2-methyl-3-phenylprop-2-enal]
57 | 7.00 °C | CCCC(C)=O [pentan-2-one]
58 | -9.00 °C | C[Si](Cl)(Cl)Cl [trichloro(methyl)silane]

Row | flash point | SMILES
59 | 85.00 °C | CC(O)c1ccccc1 (configuration not stated) [1-phenylethanol]
60 | 189.00 °C | CS(=O)(=O)O [methanesulfonic acid]
61 | 77.00 °C | CC(C)c1ccccc1C(C)C [1,2-di(propan-2-yl)benzene]
62 | 30.00 °C | O=C1CCCC1 [cyclopentanone]
63 | 2.00 °C | CC(=O)OC(C)C [propan-2-yl acetate]
64 | 229.00 °C | CCCCCCC(O)C/C=C\CCCCCCCC(=O)OCC(COC(=O)CCCCCCC/C=C\CC(O)CCCCCC)OC(=O)CCCCCCC/C=C\CC(O)CCCCCC (configuration not stated)
65 | 154.00 °C | CNC(=O)NC [1,3-dimethylurea]
66 | 52.00 °C | C=Cc1ccc(C)cc1 [1-ethenyl-4-methylbenzene]
67 | 25.00 °C | C1=CCC=C1 [InChI=1S/C5H6/c1-2-4-5-3-1/h1-4H,5H2]
68 | 39.00 °C | c1cc[nH]c1 [1H-pyrrole]
69 | 2.00 °C | C1COCO1 [1,3-dioxolane]
70 | 55.00 °C | C[Si]1(C)O[Si](C)(C)O[Si](C)(C)O[Si](C)(C)O1
71 | 60.00 °C | Cc1cccc(Br)c1 [1-bromo-3-methylbenzene]
72 | 132.00 °C | Cc1c(N=C=O)cccc1N=C=O [1,3-diisocyanato-2-methylbenzene]
73 | 110.00 °C | Cc1ccc2cccnc2c1 [7-methylquinoline]
74 | 113.00 °C | O=S(=O)(O)c1ccccc1 [benzenesulfonic acid]
75 | 187.00 °C | CC(C)C1=CC2=CC[C@@H]3[C@](C)(CCC[C@@]3(C)C(=O)O)[C@H]2CC1
76 | 70.00 °C | COC(=O)CC(C)=O [methyl 3-oxobutanoate]
77 | 77.00 °C | CCN(CC)C(C)=O [N,N-diethylacetamide]
